From US11510894B2, “Fast acting inhibitor of gastric acid secretion” (priority 2006, dated 2022)
“And” between values parts separate entries of the source, which are not always exact repeats. Identical values can stand only once. “Also recorded” adds a separate entry of the source.

Key:
[1] = target: T1, H+/K+-ATPase (Rattus norvegicus, UniProt P09626); test: Intracellular pH recovery in rat corpus glands (comparison with fundus); type: cell-based
T1 construct: Individual glands were isolated using a hand-dissection technique; from tissue; host or cells: hand-dissected gastric glands of Sprague-Dawley rats (corpus/antrum)
Protocol: Molecular Probes, OR USA)) for 15 minutes. […] Measurements were performed in the epifluorescence mode with 60×/0.80 and 40×/0.90 objectives. […] Data points were acquired every 15 s. […] Acid extrusion was monitored in the absence of bicarbonate. […] All data are summarized as mean±S.E. Significance was determined using the one-way ANOVA test with p<0.05 considered to be statistically significant. All chemicals used were obtained from Sigma and Molecular Probes.

[2] = tested on: H+, K+-ATPase; test: Intracellular pH recovery in isolated rat fundic (F1) glands; type: cell-based; settings: for alkalinization rate of F1 glands: 100 μM secretagogue alone
Protocol: Male Sprague Dawley rats weighing 200-300 g were housed in climate and humidity controlled, light cycled rooms and fed standard chow with free access to water. Prior to experiments, animals were fasted while allowing free access to water for 18-24 hours to reduce basal acid secretion. Following isoflurane anesthesia the animals were sacrificed, an abdominal incision was made exposing the stomach. After isolating the esophagus and duodenal junctures a total gastrectomy was performed with 1-2 cm of esophagus remaining attached to the gastrectomy. We included the esophageal juncture to have a common landmark for all fundic isolations. While holding the esophagus with forceps approximately 3 mm of fundus was removed with 5 mm of the intact esophagus. The removed fundic tissue was placed in ice cold HEPES-buffered Ringer-solution (pH adjusted to 7.4 at 4° C.) and transferred to the stage of a dissection microscope. The fundic glands were visualized under the microscope at 50× magnification. Glands adjacent to the esophageal junction were hand dissected. Following isolation, individual glands were adhered to cover slips that had been pretreated with the biological adhesive Cell-Tak (Cell-Tak™ cell adhesive, BD Biosciences; Bedford, Mass.) […] Molecular Probes, OR USA)) for 15 minutes. […] Measurements were performed in the epifluorescence mode with 60×/0.80 and 40×/0.90 objectives. […] Data points were acquired every 15 s. […] Acid extrusion was monitored in the absence of bicarbonate. […] All data are summarized as mean±S.E. Significance was determined using the one-way ANOVA test with p<0.05 considered to be statistically significant. All chemicals used were obtained from Sigma and Molecular Probes.

[3] = tested on: histamine induced gastric acid secretion; test: Whole stomach pH measurements, ex vivo rat whole stomach preparation
Protocol: Whole stomach pH measurements. Before the experiments animals were fasted for 24 h to reduce basal acid secretion to a consistent minimum. Animals were killed with an overdose of isoflurane and an abdominal incision was made. The stomach was ligated at the duodenal and esophageal junction and excised. Then 1 ml of non buffered, isotonic saline (140 mM) was infused into the lumen of the stomach. […] The stomachs were then placed in either oxygenated HEPES-buffered Ringer solution or in the same solution containing 100 μM histamine alone or additionally 300 μM ZnCl2 (pH 7.4) and maintained at 37° C. After 1 hour the stomach contents were aspirated and the pH was recorded.

[4] = target: T1, H+/K+-ATPase; test: Oral zinc supplementation in rats, histamine induced proton extrusion of isolated glands; type: in vivo
Protocol: Oral Zinc supplementation in rats. These studies were designed to modulate acid secretion by increasing dietary zinc. In these studies we used an oral ZnCl2 solution (zinc chloride in tap water). The animals had free access to food and the zinc containing water for the duration of the study. […] Animals had free access to water prior to the experiment and were fed with standard chow until 24 hours before the experiment, at which point they had free access to ZnCl2 containing water only. After the 5 days exposure period and the 24 hour fast, the animals were sacrificed and a total gastrectomy was performed on the animals. Individual gastric glands were isolated with the hand dissection technique described above.

[5] = target: T1, H+/K+-ATPase; test: Intracellular pH recovery (proton extrusion) in isolated rat gastric glands, NH4Cl prepulse, BCECF; type: cell-based
Protocol: Animals. Sprague-Dawley rats 150-250 g (Charles River Laboratory)) were housed in climate- and humidity-controlled, light-cycled rooms, fed standard chow with free access to water, and handled according to the humane practices of animal care established by the Yale Animal Care. Prior to experiments, animals were fasted for 18-24 hours with free access to water.
(§1) Isolation of rat and human gastric Glands. Following removal of the stomach, the stomach was opened longitudinally and the corpus and antrum isolated and sliced into 0.5 cm square sections, and washed with cold Ringer solution to remove residual food particles. The tissues were transferred to the stage of a dissecting microscope. Individual glands were isolated using a hand-dissection technique as described previously^36. Following isolation, individual isolated glands were allowed to adhere to cover slips that had been pre-coated with Cell-Tak (Collaborative Research, Bedford, Mass.) and were transferred to the stage of an inverted microscope.
(§2) Digital imaging for intracellular pH. Isolated gastric glands were incubated in a HEPES-buffered Ringer's solution containing either 10 μmol of the pH-sensitive dye BCECF-AM (2′,7′)-bis-(2-carboxyethyl)-5-(and-6)-carboxy-fluorescin, aceto-methyl ester (Molecular Probes, Eugene, Oreg.) for 10 minutes as described previously^37-39. […] A minimum of 8 cells or regions was selected per gland.
(§3) Proton extrusion by individual parietal cells was monitored by observing recovery of pHi after acid loading the cells with Na^+ free HEPES solution containing 20 mM NH4Cl.
(§4) The recovery rates are expressed as the ΔpH/min, and were calculated over the pH range of 6.5-6.8.

[6] = target: H+/K+-ATPase (Homo sapiens, UniProt P20648); test: Intracellular pH recovery (proton extrusion) in isolated human gastric glands; type: cell-based; settings: histamine stimulation
Source text: as §1, §2, §3, §4

T1 sequence (P09626 whole entry): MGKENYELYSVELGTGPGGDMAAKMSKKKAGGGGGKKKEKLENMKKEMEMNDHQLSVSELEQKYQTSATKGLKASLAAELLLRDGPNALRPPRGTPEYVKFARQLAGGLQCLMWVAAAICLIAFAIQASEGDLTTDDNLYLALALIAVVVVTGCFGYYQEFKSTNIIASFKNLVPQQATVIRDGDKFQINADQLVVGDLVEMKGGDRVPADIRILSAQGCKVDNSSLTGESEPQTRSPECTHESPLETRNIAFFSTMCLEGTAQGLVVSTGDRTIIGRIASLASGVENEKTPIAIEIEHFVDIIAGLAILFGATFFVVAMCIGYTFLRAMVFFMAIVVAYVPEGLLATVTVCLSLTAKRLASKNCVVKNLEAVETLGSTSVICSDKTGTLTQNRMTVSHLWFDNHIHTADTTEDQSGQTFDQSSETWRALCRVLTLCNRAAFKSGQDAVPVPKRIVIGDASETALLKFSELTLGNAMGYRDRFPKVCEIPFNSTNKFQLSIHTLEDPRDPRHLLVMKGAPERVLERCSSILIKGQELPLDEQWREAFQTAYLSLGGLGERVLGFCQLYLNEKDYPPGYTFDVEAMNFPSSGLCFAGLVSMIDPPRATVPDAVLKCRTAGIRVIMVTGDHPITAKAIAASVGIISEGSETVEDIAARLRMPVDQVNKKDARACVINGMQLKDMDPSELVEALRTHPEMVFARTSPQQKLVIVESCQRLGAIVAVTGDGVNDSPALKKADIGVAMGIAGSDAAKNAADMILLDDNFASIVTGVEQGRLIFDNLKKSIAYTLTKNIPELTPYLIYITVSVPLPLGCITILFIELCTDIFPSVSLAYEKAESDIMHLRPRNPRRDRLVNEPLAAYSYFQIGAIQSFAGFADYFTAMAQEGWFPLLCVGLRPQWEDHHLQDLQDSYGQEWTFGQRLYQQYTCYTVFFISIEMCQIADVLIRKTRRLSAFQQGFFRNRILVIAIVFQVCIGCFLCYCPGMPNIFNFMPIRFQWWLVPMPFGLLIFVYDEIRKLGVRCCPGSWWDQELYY
T1 sequence (P18598 whole entry partner): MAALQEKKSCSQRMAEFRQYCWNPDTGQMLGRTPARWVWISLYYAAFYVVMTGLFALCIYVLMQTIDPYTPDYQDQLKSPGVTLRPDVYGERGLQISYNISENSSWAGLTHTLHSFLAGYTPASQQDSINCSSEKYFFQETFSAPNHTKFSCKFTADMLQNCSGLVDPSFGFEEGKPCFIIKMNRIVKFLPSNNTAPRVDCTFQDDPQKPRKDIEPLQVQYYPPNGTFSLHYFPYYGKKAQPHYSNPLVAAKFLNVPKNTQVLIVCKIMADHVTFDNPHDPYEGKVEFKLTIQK
H+/K+-ATPase (Homo sapiens, UniProt P20648), sequence (P20648 whole entry): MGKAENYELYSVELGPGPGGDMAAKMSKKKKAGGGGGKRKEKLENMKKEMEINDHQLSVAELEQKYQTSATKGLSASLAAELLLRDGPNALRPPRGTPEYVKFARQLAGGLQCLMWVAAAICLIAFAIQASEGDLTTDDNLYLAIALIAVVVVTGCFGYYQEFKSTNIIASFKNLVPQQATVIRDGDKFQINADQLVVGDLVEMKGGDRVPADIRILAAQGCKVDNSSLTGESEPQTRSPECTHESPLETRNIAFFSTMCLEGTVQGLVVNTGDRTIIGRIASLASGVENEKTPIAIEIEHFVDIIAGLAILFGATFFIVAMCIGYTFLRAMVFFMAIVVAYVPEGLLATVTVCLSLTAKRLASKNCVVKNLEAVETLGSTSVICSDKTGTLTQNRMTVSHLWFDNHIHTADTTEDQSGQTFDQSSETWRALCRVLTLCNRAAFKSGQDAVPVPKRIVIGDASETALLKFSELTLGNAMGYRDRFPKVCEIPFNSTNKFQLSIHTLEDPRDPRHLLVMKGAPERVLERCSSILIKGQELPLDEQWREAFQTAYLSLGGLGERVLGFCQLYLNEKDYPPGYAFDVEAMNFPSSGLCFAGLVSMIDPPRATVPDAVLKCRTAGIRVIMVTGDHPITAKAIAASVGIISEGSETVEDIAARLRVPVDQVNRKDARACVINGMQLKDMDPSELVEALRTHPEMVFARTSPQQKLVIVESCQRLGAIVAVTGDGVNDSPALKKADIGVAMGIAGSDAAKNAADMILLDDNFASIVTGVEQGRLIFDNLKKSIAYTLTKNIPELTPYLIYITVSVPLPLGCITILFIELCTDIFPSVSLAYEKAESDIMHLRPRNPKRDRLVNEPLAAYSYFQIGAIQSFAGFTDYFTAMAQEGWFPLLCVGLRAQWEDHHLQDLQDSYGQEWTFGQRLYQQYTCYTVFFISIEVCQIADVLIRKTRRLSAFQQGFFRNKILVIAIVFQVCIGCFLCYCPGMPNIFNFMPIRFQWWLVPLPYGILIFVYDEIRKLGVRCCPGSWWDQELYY
H+/K+-ATPase (Homo sapiens, UniProt P20648), sequence (P51164 whole entry partner): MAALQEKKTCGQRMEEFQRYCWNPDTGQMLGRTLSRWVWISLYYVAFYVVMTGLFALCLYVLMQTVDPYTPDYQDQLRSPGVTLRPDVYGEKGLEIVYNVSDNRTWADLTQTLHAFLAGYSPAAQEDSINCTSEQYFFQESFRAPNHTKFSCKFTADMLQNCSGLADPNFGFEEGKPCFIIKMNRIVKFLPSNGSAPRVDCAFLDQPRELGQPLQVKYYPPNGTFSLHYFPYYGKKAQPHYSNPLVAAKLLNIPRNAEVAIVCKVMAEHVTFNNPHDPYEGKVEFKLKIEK

Cc1cccc(C)c1CNc1cc(C(=O)NCCO)cn2c(C)c(C)nc12 [AZD0865]
inhibition of acid secretion in corpus glands, in words ([1]; omeprazole 200 μM, AZD0865 10 μM): effectively inhibits acid secretion; also recorded: strong inhibition
inhibition of acid secretion in F1 (fundic) glands, in words ([2]; omeprazole 200 μM with histamine 100 μM, AZD0865 10 μM): does not completely inhibit proton extrusion

[Cl-].[Cl-].[Zn+2] [ZnCl2, zinc chloride]
mean luminal pH ([3]; 100 μM histamine and 300 μM ZnCl2, 1 hour): 4.54±0.065
whole stomach pH in words ([3]; 100 μmol histamine and 300 μmol ZnCl2): higher pH than those in HEPES-buffered Ringer solution and histamine
histamine induced proton extrusion rate after oral ZnCl2 ([4]; 0.5 mg/kg/d ZnCl2 in drinking water for 5 days): 0.034±0.0036
histamine induced proton extrusion rate after oral ZnCl2 ([4]; 150 mg/kg/d ZnCl2 in drinking water for 5 days): 0.022±0.0045
inhibition of proton extrusion compared to the histamine induced rate ([5]; 300 μM ZnCl2, 100 μM histamine): 98%
effect on histamine induced proton efflux from gastric glands ([5]; 300 umol ZnCl2, histamine 100 μM): blocked
onset of inhibition of histamine induced acid secretion ([5]; ZnCl2 300 μM added to superfusion bath, histamine 100 μM): abolished after a few seconds
effect on histamine stimulated proton efflux in human gastric glands [6]: abolished

CC(=O)OCC[N+](C)(C)C [acetylcholine]
alkalinization rate of F1 glands [2]: 0.075±0.0015 ΔpHi/min

NCCc1c[nH]cn1 [histamine]
mean luminal pH ([3]; 100 μM histamine, 1 hour): 3.15±0.27
recovery rate (proton extrusion) of histamine stimulated parietal cells ([4]; control group, histamine alone, no zinc): 0.051±0.004
histamine stimulated proton extrusion rate in corpus gland ([1]; 100 μM histamine): 0.056±0.008 ΔpHi/min
effect of secretagogue on F1 zone glands in comparison to controls, in words ([2]; 100 μM): no effect
alkalinization rate of F1 glands [2]: 0.04±0.0079 ΔpHi/min and 0.042±0.007 ΔpHi/min

COc1ccc2[nH]c([S+]([O-])Cc3ncc(C)c(OC)c3C)nc2c1 (centres unmarked) [omeprazole]
alkalinization rate of fundic glands ([2]; 200 μM omeprazole and 100 μM histamine): 0.045±0.002 ΔpHi/min
